Test results taken from US20150038471A1, “PROCESS FOR PREVENTING OR MITIGATING BIOFOULING” (Baker Hughes Incorporated, priority 2010, published 2015).

Assays:
Type in all cases: cell-based
[1] = tested on: sulfate-reducing bacteria (SRB); test: SRB surviving 3 h treatment, serial dilution enumeration (NACE TMO 194-2004)
Excerpt: Following the treatment, an aliquot of each sample was serially diluted (10-fold dilutions) into culture media for SRB to enumerate the survivors according to NACE TMO 194-2004.

[2] = tested on: bacterial-fouled water taken from an oil production site; test: Turbidity of bacterial-fouled oilfield water culture in synthetic brine; conditions: 600 nm after 24 hours
Description: A sample of a bacterial-fouled water was taken from an oil production site and used as a culture base for testing of cinnamaldehyde as a bactericide. The culture was introduced into a synthetic brine (similar to that used for oilfield operations) and turbidity was measure at 600 nm after 24 hours.

[3] = tested on: acid-producing bacteria (APB); test: Mitigation of APB growth in seawater, dilution series bottles; conditions: 600 ppm product; seawater 3% TDS; contact 20 hours; three replicate columns
Description: Various biocidal blends with only 50% THPS, only XC800, and different mixtures were tested, along with a control, at preventing or mitigating APB growth. The media was seawater with 3% total dissolved solids (TDS). Contact times were 20 hours and the reaction volume was 50 ml, using 8 bottles per dilution series string. APB growth was measured from 0 to 4 in logarithmic units.
In FIG. 1, it is expected that the mitigation of APB growth would generally follow a straight line (dashed in FIG. 1) from 600 ppm THPS (50%) to 600 ppm XC800.

In the case of “tetrakis hydroxymethyl phosphonium sulfate [THPS]”, the “SRB Surviving Treatment” value ([1]; THPS 50 ppm, cinnamaldehyde 0 ppm) is reported as “≧10^10 SRB/ml”, the “SRB Surviving Treatment” value ([1]; THPS 100 ppm, cinnamaldehyde 0 ppm) is reported as “≧10^10 SRB/ml” and the “SRB Surviving Treatment” value ([1]; THPS 250 ppm, cinnamaldehyde 0 ppm) is reported as 10^5 SRB/ml.
O=CC=Cc1ccccc1 [Cinnamaldehyde, cinnamaldehyde] showed a Turbidity ([2]; cinnamaldehyde 50 ppm) of 1.854, a Turbidity ([2]; cinnamaldehyde 125 ppm) of 0.973 and a Turbidity ([2]; cinnamaldehyde 250 ppm) of 0.175. For the same compound, the Turbidity ([2]; cinnamaldehyde 375 ppm) was 0.103, the Turbidity ([2]; cinnamaldehyde 500 ppm) was 0.113 and the “SRB Surviving Treatment” value ([1]; THPS 0 ppm, cinnamaldehyde 25 ppm) was “≧10^10 SRB/ml”. For the same compound, the “SRB Surviving Treatment” value ([1]; THPS 0 ppm, cinnamaldehyde 50 ppm) was “≧10^10 SRB/ml”.
In the case of “tetrakis hydroxymethyl phosphonium sulfate [50% THPS only]”, the “APB growth (0 to 4)” value [3] is reported as 1 logarithmic units.
